According to patent US20240108740A1, “THERAPEUTIC COMPOSITIONS INCLUDING SPN10 AND USES THEREOF” (Stealth BioTherapeutics Inc., priority 2022, published 2024):
Residues, ends and D or L forms follow the SMILES beside them.

Experiments:
[1] = system: CD36 knockout (CD36 KO) mice; assay: Example 3: acute cerebral ischemia in CD36 knockout mice; format: in vivo, mouse
Method: CD36 knockout (CD36 KO) mice will be subjected to acute cerebral ischemia as described in Example 2. CD36 KO mice will be given either saline vehicle (Veh) (i.p., n=5), peptide conjugates (2 mg/kg or 5 mg/kg, i.p., n=6), aromatic-cationic peptides (e.g., an equivalent molar dose of aromatic-cationic peptide based on the concentration of the aromatic-cationic peptide administered in the peptide conjugate treatment group), SPN10(s) (e.g., an equivalent molar dose of SPN10 based on the concentration of SPN10 administered in the peptide conjugate treatment group), or SPN10(s) in combination with aromatic-cationic peptides (e.g., an equivalent molar dose of SPN10 based on the concentration of SPN10 administered in the peptide conjugate treatment group and an equivalent molar dose of aromatic-cationic peptide based on the concentration of aromatic-cationic peptide administered in the peptide conjugate treatment group) at 0, 6, 24 and 48 hours following a 30 minute period of ischemia. Infarct volume and hemispheric swelling in CD36 KO mice are expected to be similar in subjects receiving saline, SPN10(s) (alone or in combination with aromatic-cationic peptides), aromatic-cationic peptides and peptide conjugates.

isolated mitochondria = assay: Example 12: MPT induced by Ca^2+ overload and 3NP in isolated mitochondria
Method: 3-Nitropropionic acid (3NP) is an irreversible inhibitor of succinate dehydrogenase in complex II of the electron transport chain. It is anticipated that the addition of 3NP (1 mM) to isolated mitochondria will cause the loss of mitochondrial membrane potential and the onset of MPT.

[2] = system: Islet cells isolated from mouse pancreas; assay: Example 29: viability of isolated pancreatic islet cells; format: cell-based; details: added to isolation buffers
Text: Islet cells will be isolated from mouse pancreas according to standard procedures. Peptide conjugates, aromatic-cationic peptides, SPN10(s) with or without aromatic-cationic peptides or control vehicle will be added to isolation buffers used throughout the isolation procedure. Mitochondrial membrane potential will be measured using TMRM (red) and visualized by confocal microscopy, and apoptosis will be measured by flow cytometry using annexin V and necrosis by propidium iodide.

mice treated with Mtox = assay: Example 31: Mtox model of Parkinson's Disease; format: in vivo, mouse; details: Mtox 10 mg/kg, three doses
Method: Three doses of Mtox (10 mg/kg) will be given to mice (n=12) 2 hours apart. Peptide conjugates, aromatic-cationic peptides, or SPN10(s) with or without aromatic-cationic peptides will be administered 30 minutes before each Mtox injection, and at 1 and 12 hours after the last Mtox injection. Animals will be sacrificed one week later and striatal brain regions will be immunostained for tyrosine hydroxylase activity. Levels of dopamine, DOPAC and HVA levels will be quantified by high pressure liquid chromatography.

[3] = system: Ang II-induced hypertensive cardiomyopathy; assay: Ang II (4 weeks) induced cardiac NADPH oxidase, p38 MAPK and apoptosis; format: in vivo
Text: It is anticipated that SPN10(s) (with or without aromatic-cationic peptides) or peptide conjugates act downstream of NADPH oxidase and will reduce activation of p38 MAPK and apoptosis in response to Ang II. […] Mitochondrial ROS, either directly, or indirectly by activating apoptosis signal regulating kinase, may induce apoptosis. It is anticipated that Ang II will induce cardiac apoptosis, which will be shown through an increase in cleaved caspase-3.

[4] = system: acute myocardial infarction; assay: Infarct size at revascularization, given with cyclosporine; format: in vivo, human; details: along with cyclosporine at the time of reperfusion
Method: Study group. Men and women, 18 years of age or older, who present within 6 hours after the onset of chest pain, who have ST-segment elevation of more than 0.1 mV in two contiguous leads, and for whom the clinical decision is made to treat with percutaneous coronary intervention (PCI) will be eligible for enrollment. Patients are eligible for the study whether they are undergoing primary PCI or rescue PCI. Occlusion of the affected coronary artery (Thrombolysis in Myocardial Infarction (TIMI) flow grade 0) at the time of admission is also a criterion for inclusion. Angiography and Revascularization. […] Either separately or simultaneously, cyclosporine (final concentration, […] will be injected through the catheter. Normal saline (0.9% NaCl) will be used as a control. The patients in the control group receive an equivalent volume of normal saline. Infarct Size. The primary end point will be the size of the infarct as assessed by measurements of cardiac biomarkers. Blood samples are obtained at admission and repeatedly over the next 3 days. The area under the curve (AUC) (expressed in arbitrary units) for creatine kinase and troponin I release (Beckman kit) will be measured in each patient by computerized planimetry. […] The images are analyzed in short axis slices covering the entire left ventricle. […]

N=C(N)NCCC[C@H](NC(=O)[C@@H](N)Cc1c[nH]c2ccccc12)C(=O)N[C@@H](Cc1c[nH]c2ccccc12)C(=O)N[C@@H](CCCCN)C(N)=O [SPN10, H-L-Trp-L-Arg-L-Trp-L-Lys-NH2] (H-WRWK-NH2)
infarct volume and hemispheric swelling in CD36 KO mice ([1]; compared with saline): similar | GSH depletion in the ipsilateral cortex in CD36 KO mice ([1]; mouse, in vivo): fail to further prevent GSH depletion | tolerance of mitochondria to cumulative Ca^2+ challenges (isolated mitochondria): dose-dependently increase the tolerance | onset of MPT after Ca^2+ (isolated mitochondria; 10 μM pre-treatment for 2 minutes prior to Ca^2+): prevent the onset of MPT | onset of MPT induced by 3NP (isolated mitochondria; 3NP 1 mM): dose-dependently delay the onset of MPT | apoptosis of islet cells (annexin V) [2]: reduce apoptosis | islet cell viability (mitochondrial membrane potential) [2]: increase islet cell viability | loss of dopaminergic neurons (mice treated with Mtox): dose-dependently prevent the loss of dopaminergic neurons | striatal dopamine, DOPAC, and HVA levels (mice treated with Mtox): dose-dependently increase striatal dopamine, DOPAC, and HVA levels | Ang II-increased cardiac NADPH oxidase activity ([3]; 4 weeks of Ang II): not be changed | activation of caspase-3 caused by Ang II (cleaved caspase-3) ([3]; Ang II): completely prevent | phosphorylation of p38 MAPK ([3]; Ang II for 4 weeks): significantly and nearly fully attenuated | infarct size versus placebo [4]: smaller infarct
